Laboratory results from patent publication US12209145B2, “PCSK9 antagonist compounds” (Merck Sharp & Dohme LLC, priority 2018, dated 2025).
Starred links: 1 amine or outer side, 2 acyl side, 3 side chain; linkers in the order of their positions; H or OH if unused. Positions of bridges follow the written chain, without caps; N, C: chain ends. Non-standard residues stand in square brackets, D forms with d. Residues, ends and D or L forms follow the SMILES beside them. *: point of attachment. X1 = CC1(C)C(/C=C/C=C/C=C2\N(CCCS(=O)(=O)O)c3ccc(S(=O)(=O)O)cc3C2(C)CCCCCC(=O)*)=[N+](CCCS(=O)(=O)[O-])c2ccc(S(=O)(=O)O)cc21; Trp(5-F) = N[C@@H](Cc1c[nH]c2ccc(F)cc12)C(=O)O; mXylylene = c1cc(C[*:1])cc(C[*:2])c1; αMeP = C[C@@]1(C(=O)O)CCCN1; Mpa = O=C(O)CCS

Tests used:
[1] = biological target: T1, PCSK9 (Homo sapiens, UniProt Q8NBP7); assay: PCSK9 Alexa FRET Plus TR-FRET assay (displacement of AlexaFluor647 tagged cyclic peptide Reagent B); format: binding; conditions: for Ki: 0.5 nM biotinylated PCSK9, 960 nM AF cyclic peptide Reagent B, Ki calculated from IC50 and KD of AF peptide
T1 construct: Biotinylated PCSK9 was obtained commercially; purchased
T1 sequence (Q8NBP7 153-692): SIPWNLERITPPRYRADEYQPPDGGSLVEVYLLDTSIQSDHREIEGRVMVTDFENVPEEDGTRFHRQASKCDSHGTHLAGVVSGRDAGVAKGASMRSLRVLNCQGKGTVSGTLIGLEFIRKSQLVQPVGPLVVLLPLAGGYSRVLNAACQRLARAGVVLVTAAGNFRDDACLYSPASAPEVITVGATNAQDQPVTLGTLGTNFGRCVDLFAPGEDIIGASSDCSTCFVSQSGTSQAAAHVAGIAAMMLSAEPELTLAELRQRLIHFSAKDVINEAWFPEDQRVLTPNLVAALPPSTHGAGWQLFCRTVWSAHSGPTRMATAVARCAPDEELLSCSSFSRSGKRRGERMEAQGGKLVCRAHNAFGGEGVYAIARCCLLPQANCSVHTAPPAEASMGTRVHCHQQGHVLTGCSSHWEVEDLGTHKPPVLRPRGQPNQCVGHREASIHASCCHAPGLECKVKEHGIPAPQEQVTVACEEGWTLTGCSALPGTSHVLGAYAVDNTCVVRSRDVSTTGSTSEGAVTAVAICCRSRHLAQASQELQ
Protocol: (§1) The following is a description of the assays used to determine activity of compounds of the invention, and any comparator compounds reported, toward PCSK9 antagonism. Biotinylated PCSK9 was obtained commercially.
A solution containing 1 nM biotinylated PCSK9+2.5 nM Lance Streptavidin Europium (Strep-Eu) is made in 50 mM HEPES pH 7.4, 0.15 M NaCl, 5 mM CaCl2, 0.01% BSA, and 0.01% Surfactant P20. A separate solution containing 1920 nM of the AlexaFluor tagged cyclic peptide is made in the same buffer system. An Echo is used to transfer 0.075 ul of compound plus 0.675 ul of DMSO to each well of an assay plate followed by the addition of 15 ul of PCSK9+Stept-Eu and 15 ul of AF peptide. The final assay volume is 30.750 ul containing 0.5 nM PCSK9, 1.25 nM Strep-Eu, and 960 nM AF cyclic peptide. The reaction is incubated at room temperature for at least two hours prior to fluorescence measurements using an Envision Multilabel Reader. IC50 values are determined by fitting data to a sigmoidal dose-response curve using nonlinear regression. Ki is then calculated from the IC50 and the KD of AF cyclic peptide. Counts (B-counts) of the europium-labeled PCSK9 are followed to observe if compounds are adversely affecting PCSK9. A fall off of the B-counts is likely indicates a false positive of inhibition. Data from this procedure is reported as “P=‘numerical value’ (nanomolar)”
Activity data obtained by one or both of the above-described procedures is reported for selected example compounds of the invention in the following format: Example No.: A (standard TR Fret)=‘numerical value’; P (Alexa Fret plus standard TR Fret)=‘numerical value’/, note that all values reported are nanomolar.

[2] = biological target: T1, PCSK9; assay: PCSK9 Alexa FRET Ultra TR-FRET assay (displacement of AlexaFluor647 tagged cyclic peptide); format: binding; conditions: for Ki: 0.5 nM biotinylated PCSK9, 960 nM AF cyclic peptide, Ki calculated from IC50 and KD of AF peptide
Protocol: as §1
A solution containing 1 nM biotinylated PCSK9+2.5 nM Lance Streptavidin Europium (Strep-Eu) is made in 50 mM HEPES pH 7.4, 0.15 M NaCl, 5 mM CaCl2, 0.01% BSA, and 0.01% Surfactant P20. A separate solution containing 1920 nM of the AlexaFluor tagged cyclic peptide is made in the same buffer system. An Echo is used to transfer 0.015 ul of compound plus 0.735 ul of DMSO to each well of an assay plate followed by the addition of 15 ul of PCSK9+Stept-Eu and 15 ul of AF peptide. The final assay volume is 30.750 ul containing 0.5 nM PCSK9, 1.25 nM Strep-Eu, and 960 nM AF cyclic peptide. The reaction is incubated at room temperature for at least two hours prior to fluorescence measurements using an Envision Multilabel Reader. IC50 values are determined by fitting data to a sigmoidal dose-response curve using nonlinear regression. Ki is then calculated from the IC50 and the KD of AF cyclic peptide. Counts (B-counts) of the europium-labeled PCSK9 are followed to observe if compounds are adversely affecting PCSK9. A fall off of the B-counts is likely indicates a false positive of inhibition. Data from this procedure is reported as “Ki Ultra=‘numerical value’ (data reported is nanomolar)”

SMILES	Ki ([1]; Ki Plus)	Ki ([2]; Ki Ultra)	further results
COc1ccc(C[C@@H]2NC(=O)[C@H]([C@@H](C)O)NC(=O)[C@@H]3[C@@H]4CCN3C(=O)[C@@H]3Cc5cn(c6ccc(F)cc56)CCCCN(Cc5ccc(cc5)CCNC(=O)[C@]5(C)CCCN5C2=O)C(=O)CCC(=O)N[C@@H](C)C(=O)N[C@H](CNC(=O)CCC(=O)NC2OC(CO)C(O)C(O)C2O)C(=O)N[C@@H](Cc2cccc(c2)CNC(=O)CO4)C(=O)N3)cc1 (some centres unmarked) [Ex-27]			Ki ([1]; read-out: Ki Plus): 5.58 pM; Ki ([2]; read-out: Ki Ultra): 3.01 pM
COc1ccc(C[C@@H]2NC(=O)[C@H]([C@@H](C)O)NC(=O)[C@@H]3[C@@H]4CCN3C(=O)[C@@H]3Cc5cn(c6ccc(F)cc56)C/C=C/CN(Cc5ccc(cc5)CCNC(=O)[C@]5(C)CCCN5C2=O)C(=O)CCC(=O)N[C@@H](C)C(=O)N[C@H](CNC(=O)CCOCCOCC[N+](C)(C)C)C(=O)N[C@@H](Cc2cccc(c2)CNC(=O)CO4)C(=O)N3)cc1 [Ex-29]			Ki ([1]; read-out: Ki Plus): 9.81 pM; Ki ([2]; read-out: Ki Ultra): 6.14 pM
COc1ccc(C[C@@H]2NC(=O)[C@H]([C@@H](C)O)NC(=O)[C@@H]3[C@@H]4CCN3C(=O)[C@@H]3Cc5cn(c6ccccc56)CCCCCCN(Cc5ccc(cc5)CCNC(=O)[C@]5(C)CCCN5C2=O)C(=O)CCC(=O)N[C@@H](C)C(=O)N[C@H](CNC(=O)CCCCC[N+](C)(C)C)C(=O)N[C@@H](Cc2cccc(c2)CNC(=O)CO4)C(=O)N3)cc1 [Ex-35]	46.5 pM	84.3 pM	
COc1ccc(C[C@@H]2NC(=O)[C@H](C)NC(=O)[C@@H]3[C@@H]4CCN3C(=O)[C@@H]3Cc5cn(c6ccc(F)cc56)CCCCCCN(Cc5ccc(cc5)CCNC(=O)[C@]5(C)CCCN5C2=O)C(=O)CCC(=O)N[C@@H](C)C(=O)N[C@H](CNC(=O)CCCCC[N+](C)(C)C)C(=O)N[C@@H](Cc2cccc(c2)CNC(=O)CO4)C(=O)N3)cc1 [Ex-36]	7.62 pM	5.07 pM	
COc1ccc(C[C@@H]2NC(=O)[C@H]([C@@H](C)O)NC(=O)[C@@H]3[C@@H]4CCN3C(=O)[C@@H]3Cc5cn(c6ccc(F)cc56)CCCCC[C@@H](NC(=O)CCC(=O)N[C@@H](C)C(=O)N[C@H](CNC(=O)CCCCC[N+](C)(C)C)C(=O)N[C@@H](Cc5cccc(c5)CNC(=O)CO4)C(=O)N3)c3ccc(cc3)CCNC(=O)[C@]3(C)CCCN3C2=O)cc1 [Ex-38]	9.04 pM	14.2 pM	
COc1ccc(C[C@@H]2NC(=O)[C@H]([C@@H](C)O)NC(=O)[C@@H]3[C@@H]4CCN3C(=O)[C@@H]3Cc5cn(c6ccc(F)cc56)CCCCCOCc5cc(ccc5CNC(=O)CCC(=O)N[C@@H](C)C(=O)N[C@H](CNC(=O)CCCCC[N+](C)(C)C)C(=O)N[C@@H](Cc5cccc(c5)CNC(=O)CO4)C(=O)N3)CCNC(=O)[C@]3(C)CCCN3C2=O)cc1 [Ex-39]	7.16 pM	4.14 pM	
COc1ccc(C[C@@H]2NC(=O)[C@H]([C@@H](C)O)NC(=O)[C@@H]3[C@@H]4CCN3C(=O)[C@@H]3Cc5cn(c6ccc(F)cc56)CCCCOc5cc(cc(c5)CNC(=O)CCC(=O)N[C@@H](C)C(=O)N[C@H](CNC(=O)CCCCC[N+](C)(C)C)C(=O)N[C@@H](Cc5cccc(c5)CNC(=O)CO4)C(=O)N3)CCNC(=O)[C@]3(C)CCCN3C2=O)cc1 [Ex-40]	308 pM	860 pM	
COc1ccc(C[C@@H]2NC(=O)[C@H]([C@@H](C)O)NC(=O)[C@@H]3[C@@H]4CCN3C(=O)[C@@H]3Cc5cn(c6ccc(F)cc56)CCCCCN(CCOc5ccc(cc5)CCNC(=O)[C@]5(C)CCCN5C2=O)C(=O)CCC(=O)N[C@@H](C)C(=O)N[C@H](CNC(=O)CCCCC[N+](C)(C)C)C(=O)N[C@@H](Cc2cccc(c2)CNC(=O)CO4)C(=O)N3)cc1 [Ex-41]	6.97 pM	6.28 pM	
COc1ccc(C[C@@H]2NC(=O)[C@H]([C@@H](C)O)NC(=O)[C@@H]3[C@@H]4CCN3C(=O)[C@@H]3Cc5cn(c6ccc(F)cc56)CCCCCCN(Cc5cccc(c5)CCNC(=O)[C@]5(C)CCCN5C2=O)C(=O)CCC(=O)N[C@@H](C)C(=O)N[C@H](CNC(=O)CCCCC[N+](C)(C)C)C(=O)N[C@@H](Cc2cccc(c2)CNC(=O)CO4)C(=O)N3)cc1 [Ex-44]	14.5 pM	21.9 pM	
COc1ccc(C[C@@H]2NC(=O)[C@H]([C@@H](C)O)NC(=O)[C@@H]3[C@@H]4CCN3C(=O)[C@@H]3Cc5cn(c6ccc(F)cc56)C/C=C/CC[C@@H](NC(=O)CCC(=O)N[C@@H](C)C(=O)N[C@H](CNC(=O)CCCCC[N+](C)(C)C)C(=O)N[C@@H](Cc5cccc(c5)CNC(=O)CO4)C(=O)N3)c3ccc(cc3)CCNC(=O)[C@]3(C)CCCN3C2=O)cc1 [Ex-47]	14.7 pM	11.9 pM	
COc1ccc(C[C@@H]2NC(=O)[C@H]([C@@H](C)O)NC(=O)[C@@H]3C4CCN3C(=O)[C@@H]3Cc5cn(c6ccc(F)cc56)CCCCC[C@@H](NC(=O)CCC(=O)N[C@@H](C)C(=O)N[C@H](CNC(=O)CCOCCOCC[N+](C)(C)C)C(=O)N[C@@H](Cc5cccc(c5)CNC(=O)CO4)C(=O)N3)c3ccc(cc3)CCNC(=O)[C@]3(C)CCCN3C2=O)cc1 [Ex-48]	11.7 pM	15.4 pM	
COc1ccc(C[C@@H]2NC(=O)[C@H]([C@@H](C)O)NC(=O)[C@@H]3[C@@H]4CCN3C(=O)[C@@H]3Cc5cn(c6ccc(F)cc56)CCCCOCc5cc(ccc5CNC(=O)CCC(=O)N[C@@H](C)C(=O)N[C@H](CNC(=O)CCCCC[N+](C)(C)C)C(=O)N[C@@H](Cc5cccc(c5)CNC(=O)CO4)C(=O)N3)CCNC(=O)[C@]3(C)CCCN3C2=O)cc1 [Ex-49]	7.16 pM	4.14 pM	
COc1ccc(C[C@@H]2NC(=O)[C@H]([C@@H](C)O)NC(=O)[C@@H]3[C@@H]4CCN3C(=O)[C@@H]3Cc5cn(c6ccc(F)cc56)CCCCCCN(Cc5ccc(cc5)CCNC(=O)[C@]5(C)CCCN5C2=O)C(=O)CCC(=O)N[C@@H](C)C(=O)N[C@H](CNC(=O)CCOCCCCC[N+](C)(C)C)C(=O)N[C@@H](Cc2cccc(c2)CNC(=O)CO4)C(=O)N3)cc1 [Ex-59]	7.88 pM	4.96 pM	
COc1ccc(C[C@@H]2NC(=O)[C@H]([C@@H](C)O)NC(=O)[C@@H]3[C@@H]4CCN3C(=O)[C@@H]3Cc5cn(c6ccc(F)cc56)CCCCCCN(Cc5ccc(cc5)CCNC(=O)[C@]5(C)CCCN5C2=O)C(=O)CCC(=O)N[C@@H](C)C(=O)N[C@H](CNC(=O)CNC(=O)CCCCC[N+](C)(C)C)C(=O)N[C@@H](Cc2cccc(c2)CNC(=O)CO4)C(=O)N3)cc1 [Ex-60]	6.51 pM	5.31 pM	
COc1ccc(C[C@@H]2NC(=O)[C@H]([C@@H](C)O)NC(=O)[C@@H]3[C@@H]4CCN3C(=O)[C@@H]3Cc5cn(c6ccc(F)cc56)CCCCCCN(Cc5ccc(cc5)CCNC(=O)[C@]5(C)CCCN5C2=O)C(=O)CCC(=O)N[C@@H](C)C(=O)N[C@H](CNC(=O)CCCCCCCC[N+](C)(C)C)C(=O)N[C@@H](Cc2cccc(c2)CNC(=O)CO4)C(=O)N3)cc1 [Ex-61]	7.47 pM	6.54 pM	
COc1ccc(C[C@@H]2NC(=O)[C@H](Cc3c[nH]cn3)NC(=O)[C@H](CC(=O)O)NC(=O)[C@H](Cc3c[nH]c4ccc(F)cc34)NC(=O)[C@H](Cc3c[nH]c4ccc(F)cc34)NC(=O)[C@@H](C)NC(=O)[C@H](CCCCNC(=O)CCCCCC3(C)/C(=C/C=C/C=C/C4=[N+](CCCS(=O)(=O)[O-])c5ccc(S(=O)(=O)O)cc5C4(C)C)N(CCCS(=O)(=O)O)c4ccc(S(=O)(=O)O)cc43)NC(=O)CCSCc3cccc(c3)CSC[C@@H](C(N)=O)NC(=O)[C@]3(C)CCCN3C2=O)cc1 (some centres unmarked) [Reagent B, reference compound] ([Mpa]K(X1)[dA][Trp(5-F)][Trp(5-F)]DHY(Me)[αMeP]C-NH2; linker 1-10 via mXylylene)			Kd ([1]; probe of the Alexa FRET Plus assay): 35000 pM; Kd ([2]; probe of the Alexa FRET Ultra assay): 990 pM
